Source: patent US4281009A, “Hydantoin derivatives” (Nippon Zoki Pharmaceutical Co., Ltd., priority 1978, dated 1981)

Legend:
dd-strain male mice [1] = test: Inhibitory effect on exploratory movements; format: in vivo; conditions: after 60 minutes
Procedure: 4.2. Inhibitory effect on exploratory movements:
Groups each comprising 16-35 dd-strain male mice were used. The compounds of the present invention were given intraperitoneally. After 60 minutes, exploratory movements for 15 minutes were measured with an exploratory movement recorder by a method of Tokyo Kyoiku University.

[2] = system: normal mice and SART stress mice; test: Analgesic effect, acetic acid writhing method; format: in vivo; conditions: Mus musculus, sc, 100 mg/Kg subcutaneously
Outline: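 Normal mice and mice after 8 days of SART stress (5 per group) received 100 mg/Kg compound subcutaneously. Writhing was then induced with 0.7% acetic acid in isotonic saline, 0.1 ml/10 g i.p. Writhes were counted over 15 minutes and compared with control mice.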

dd-strain male mice [3] = test: Antiulcerogenic effect on Takagi's restraint-plus-water-immersing ulcer; format: in vivo; conditions: Mus musculus, ip
Procedure: 6.1 Antiulcerogenic effect on Takagi's restraint-plus-water-immersing ulcer: Groups each comprising 8-26 dd-strain male mice were used. The tests were carried out according to a method of Takagi, et al. [Chem. Pharm. Bull.; 12, 465 (1964)]. Sum of length of diseased parts in the glandular stomach was measured and it was compared with that of control group. The compounds of the present invention or DPH was given intraperitoneally immediately before the restraint and immersion in water.

SART stress mice = test: Inhibitory effects on increase of heart rate and elongation of QRS-time in SART stress mice; format: in vivo, mice (dd-strain male); conditions: 37.5 mg/kg/day, 9th day, Average ± S.D.
Outline: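 Male dd-strain mice, 11 or 12 per group, in three groups under SART stress; heart rate and QRS-time measured on day 9 after test start.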

isolated duodenum = test: Recovery of acetylcholine sensitivity of isolated duodenum of SART stress mice (Magnus method); format: in vivo, mice (dd-strain male); conditions: 6th day, Ach 10^-7 g/ml, Average ± S.E.
Excerpt: SART stress animals used in the tests described below were raised according to a method of Kita, et al. [Folia Pharmacol. Japan.: 71, 195-210 (1975)].
3. Effect of recovering acetylcholine (Ach) sensitivity of isolated intestinal tract:
Groups each comprising at least 10 dd-strain male mice were used. The compounds of the present invention or other comparative drugs were given intraperitoneally once a day during the stress-causing operation. On the 6th day, Ach (10^-7 g/ml.) sensitivity of isolated duodenum was examined using the Magnus method.

dd-strain male mice [4] = test: Inhibitory effect on spontaneous motor activities (Animex method); format: in vivo; conditions: after 60 minutes
Procedure: 4.1 Inhibitory effect on spontaneous motor activities:
Groups each comprising 8-16 dd-strain male mice were used. The compounds of the present invention were given intraperitoneally. After 60 minutes, spontaneous motor activities for 15 minutes were measured by the Animex method.

Wistar-strain male rats = test: Antiulcerogenic effect on Shay's ulcer (operative ulcer); format: in vivo; conditions: 10 times
Procedure: 6.2. Antiulcerogenic effect on Shay's ulcer (operative ulcer):
Tests were carried out by using groups of rats each comprising 5-10 Wistar-strain male rats according to Shay method [Shay Harry; Gastroenterology,; 5, 43 (1945)]. Ulcers in the anterior stomach were classified on the following basis:
2. 1-5 small ulcers (diameter of less than 3 mm)
3. 6 or more small ulcers or one big ulcer (diameter of more than 3 mm)
4. two or more big ulcers

[5] = system: normal mice and SART stress mice; test: Analgesic effect, tail pressure method (Randall-Selitto's device); format: in vivo, mice (ddY-strain male); conditions: for change in vivo at 100 mg/kg / change in vivo at 160 mg/kg: Mus musculus; for change in vivo at 160 mg/kg: peroral 160 mg/kg
Outline: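 Randall-Selitto tail pressure threshold measured 60 min after intraperitoneal dosing, expressed as post/pre-dose pressure ratio versus vehicle control (0.5% CMC-Na or 0.5% Tween 80, 10 ml/kg). For oral dosing, mean of readings at 30, 60, 90 and 120 min used.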

ddY-strain male mice = test: Effect of prolongation of sleeping time (hexobarbital); format: in vivo
Outline: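 Groups of 10 male ddY mice received compounds intraperitoneally along with intraperitoneal sodium hexobarbital. Loss of righting reflex was timed, and prolongation was measured against control mice.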

[6] = Acute toxicity test (LD50, Litchfield-Wilcoxon), rats; conditions: rat, in vivo, ip, intraperitoneal
Procedure: (§1) Toxicity tests were carried out by intraperitoneal administration of the compound of the present invention to groups each comprising 10 ICR-strain mice and SD-strain rats. LD50 was calculated by the Litchfield-Wilcoxon method based on the number of death 72 hours after the administration.

[7] = Acute toxicity test (LD50, Litchfield-Wilcoxon), mice; conditions: mouse, in vivo, ip, intraperitoneal
Procedure: as §1

O=C1NC(=O)C(c2ccc(O)cc2)(c2ccc(O)cc2)N1 [Compound 4, 5,5-Bis(4-hydroxyphenyl)hydantoin]
Inhibitory effect on exploratory movements (dd-strain male mice [1]; 50 mg/kg intraperitoneal): 30.1% | Inhibitory effect on exploratory movements (dd-strain male mice [1]; 100 mg/kg intraperitoneal): 54.5% | Inhibitory effect on exploratory movements (dd-strain male mice [1]; 125 mg/kg intraperitoneal): 61.3% | inhibition in vivo at 100 mg/kg ([2]; SART stress mice): 33.6% | inhibition in vivo at 100 mg/kg ([2]; normal mice): 4.8% | inhibition in vivo at 25 mg/kg (dd-strain male mice [3]; 25 mg/kg intraperitoneal): 14.2% | inhibition in vivo at 75 mg/kg (dd-strain male mice [3]; 75 mg/kg intraperitoneal): 39.1% | inhibition in vivo at 125 mg/kg (dd-strain male mice [3]; 125 mg/kg intraperitoneal): 53% | Heart rate (SART stress mice): 683 ± 61 min⁻¹ | QRS-time (SART stress mice): 12.2 ± 0.8 1/1000 sec | Ach-induced contraction of the isolated deodedum (isolated duodenum; 5 mg/kg/day intraperitoneal): 61 ± 16% | Ach-induced contraction of the isolated deodedum (isolated duodenum; 10 mg/kg/day intraperitoneal): 95 ± 10% | Inhibitory effect on spontaneous motor activities (dd-strain male mice [4]; 50 mg/kg intraperitoneal): 42.4% | Inhibitory effect on spontaneous motor activities (dd-strain male mice [4]; 75 mg/kg intraperitoneal): 52.2% | Inhibitory effect on spontaneous motor activities (dd-strain male mice [4]; 100 mg/kg intraperitoneal): 61.4% | Antiulcerogenic effect on Shay's ulcer (operative ulcer) (Wistar-strain male rats; 25 mg/kg intraperitoneal): 26.4% | Antiulcerogenic effect on Shay's ulcer (operative ulcer) (Wistar-strain male rats; 50 mg/kg intraperitoneal): 38.0% | Antiulcerogenic effect on Shay's ulcer (operative ulcer) (Wistar-strain male rats; 100 mg/kg intraperitoneal): 50.0% | Antiulcerogenic effect on Shay's ulcer (operative ulcer) (Wistar-strain male rats; 150 mg/kg intraperitoneal): 64.8% | change in vivo at 100 mg/kg ([5]; ip, 1 h, SART stress mice, intraperitoneal 100 mg/kg, 60 minutes): 162% | change in vivo at 100 mg/kg ([5]; ip, 1 h, normal mice, intraperitoneal 100 mg/kg, 60 minutes): 41.6% | change in vivo at 100 mg/kg ([5]; po, SART stress mice, peroral 100 mg/kg, average of 30, 60, 90 and 120 minutes): 67.3% | change in vivo at 160 mg/kg ([5]; po, SART stress mice, average of 30, 60, 90 and 120 minutes): 90.5% | change in vivo at 100 mg/kg ([5]; po, normal mice, peroral 100 mg/kg, average of 30, 60, 90 and 120 minutes): 52.3% | change in vivo at 160 mg/kg ([5]; po, normal mice, average of 30, 60, 90 and 120 minutes): 68.2% | Analgesic effect ([5]; SART stress mice, intraperitoneal 50 mg/kg, 60 minutes): 88.2% | Analgesic effect ([5]; SART stress mice, peroral 50 mg/kg, average of 30, 60, 90 and 120 minutes): 56.8% | Analgesic effect ([5]; normal mice, intraperitoneal 50 mg/kg, 60 minutes): 36.1% | Analgesic effect ([5]; normal mice, peroral 50 mg/kg, average of 30, 60, 90 and 120 minutes): 38.8% | Effect of prolongation of sleeping time (ddY-strain male mice; 20 mg/kg intraperitoneal): 37.2% | Effect of prolongation of sleeping time (ddY-strain male mice; 50 mg/kg intraperitoneal): 84.4% | change in vivo at 100 mg/kg (ddY-strain male mice; Mus musculus, ip, 100 mg/kg intraperitoneal): 124% | LD50 at 72 h ([6]; female): 1320 mg/kg | LD50 at 72 h ([6]; male): 1370 mg/kg | LD50 at 72 h ([7]; female): 980 mg/kg | LD50 at 72 h ([7]; male): 1060 mg/kg
